The numbers were not newly measured in patent US20140370086A1, “SUBLINGUAL IMMUNOTHERAPY WITH REDUCED ORAL ITCHINESS” (priority 2013, published 2014), which cites them from elsewhere.

The structures appear in SMILES notation.

For the data set the following is noted: at high doses.

On to `O=C(O)c1cc(=O)c2c(OCC(O)COc3cccc4oc(C(=O)O)cc(=O)c34)cccc2o1` [Cromolyn, Cromolyn sodium (cromoglicic acid)], for which the toxicity entry is listed as “no toxicity at high doses”.
